# Assays:
# MB49 (bladder) tumors [1] = assay: WST11 VTP and Gemzar in mice grafted with MB49 tumors (Scheme 2); type: in vivo; details: for animals cured (fraction): WST11 9 mg/kg VTP day 15 post grafting, Gemzar 50 mg/kg, 12 treatments/90 days; for cure / tumor progression: single treatment modalities
# Method: • (i) Bacteriochlorophyll Derivatives—The Bchl derivatives and RGD-conjugates thereof were provided by Steba Biotech (Rehovot, Israel). […] Concentration was verified by spectrophotometric measurement. STL-7012 was provided as dipotassium salt. Working solution was prepared by dissolving STL-7012 K^+ salt in 5% mannitol solution (1 mg/ml). […] WST11 was supplied as a powder and kept in the dark at −20° C. Stock was prepared by dissolving WST11 in DDW containing 5% glucose and 0.67% mannitol, aliquoted and lyophilized. Working solution was reconstituted with DDW and the concentration of solution was confirmed spectrophotometrically. Alternatively, Clinical WST11 (batch: P00611, and 10-130611) was supplied as lyophilized formulation. Material was dissolved in 5% dextrose, aliquoted and stored at −20° C. At the day of treatment the aliquot was thawed, filtered and the concentration of solution was confirmed spectrophotometrically. • (ii) Chemotherapeutic drugs preparation and storage—Gemcitabine (GEM, Gemzar®, Lilly) was purchased from a local pharmacy as a powder, dissolved in saline to a concentration of 38 mg/ml, aliquoted and stored at −20° C. […] Cyclophosphamide (CTX, Endoxan®, Baxter Oncology Gmbh, Germany) was purchased from a local pharmacy. A stock solution of 20 mg/ml was prepared by dissolving in 0.9% NaCl, aliquoted and stored at −20° C. Aliquots were thawed, diluted with saline if needed to a desired concentration and used on the same day prepared at indicated doses. • (iii) Murine cell lines—Mammary luciferase (luc)-labeled 4T1 cell line (4T1-Luc) was a kind gift from Dr. Zvi Granot (Faculty of Medicine, The Hebrew University of Jerusalem, Israel); melanoma B16-F10 cell line was obtained from the American Type Culture Collection (ATCC, Manassas, Va.); bladder MB49 cell line was a kind gift from James Allison (MSKCC, New York, USA), and luc-labeled MB49-cell line was established using the murine stem cell virus (MSCV)-puromycin-luc-GFP construct (kindly provided by Dr. Emily Cheng, Human Oncology and Pathogenesis Program, MSKCC). 4T1 and MB49 cells were maintained in DMEM medium and B16-F10 cells in RPMI medium supplemented with 1 mmol/L sodium pyruvate, 10% fetal calf serum (FCS), 250 μg/ml hygromycin, 0.06 mg/ml penicillin and 0.1 mg/ml streptomycin. The cells were grown as monolayer at 37° C. in a humidified atmosphere (5% CO2, 95% air). • (iv) Murine tumor models—Female, Balb/c mice (6-8 week old) were grafted either subcutaneously (s.c.) into the right hind leg or orthotopically with 1×10^6 4T1 cells suspended in 50 or 1000 PBS. For the rechallenge study, 2×10^5 4T1 cells were orthotopically grafted. For bladder cancer model, 5×10^4 of MB49 or MB49-luciferase cell line were s.c. injected into the right flank of C57B/6 male mice (7-8 weeks old, Taconic, Hudson, N.Y.) 15 days prior to VTP treatment. For the efficacy study of VTP in immune compromised mice, the same number of MB49 cells was injected in the flank of Rag^−/− on C57B/6 background or C57B/6 male mice (7-8 week old, Jackson Laboratory, Bar Harbor, Me.). For bilateral model of MB49 cells, animals received 5×10^4 MB49 cells in the right flank and 5×10^4 cells in the left flank on days −15 and +1, respectively. All experimental procedures were approved by the Institutional Animal Care and Use Committee at the Weizmann Institute of Science (Rehovot, Israel) and The Memorial Sloan Kettering Cancer Center (MSKCC, New York, USA). […] Whole body imaging of luciferase-transfected tumors and metastases were recorded five minutes following 75 mg Kg^−1 intraperitoneal (i.p.) injection of D-luciferin with respective filter sets. • (vi) PDT treatment protocol: 4T1-Luc cells were grafted in the mammary pad of Balb/c mice. […] During the first two post-treatment days, the mice received analgesia (2.5 mg/kg Flunexin, once daily). Ablation of primary tumors was assessed every 7 days by imaging the tumor's luciferase-mediated bioluminescence signal, using IVIS. […]
# MB49 (bladder) tumors [2] = assay: Systemic anti-tumor response in MB49 mice: second tumor (bilateral model) and tail vein re-challenge (Scheme 3); type: in vivo; details: for animals with growth of second tumor grafted at left hind leg 1 day post VTP (fraction): bilateral model, Gemzar 50 mg/kg
# Method: • (i) Bacteriochlorophyll Derivatives—The Bchl derivatives and RGD-conjugates thereof were provided by Steba Biotech (Rehovot, Israel). […] Concentration was verified by spectrophotometric measurement. STL-7012 was provided as dipotassium salt. Working solution was prepared by dissolving STL-7012 K^+ salt in 5% mannitol solution (1 mg/ml). […] WST11 was supplied as a powder and kept in the dark at −20° C. Stock was prepared by dissolving WST11 in DDW containing 5% glucose and 0.67% mannitol, aliquoted and lyophilized. Working solution was reconstituted with DDW and the concentration of solution was confirmed spectrophotometrically. Alternatively, Clinical WST11 (batch: P00611, and 10-130611) was supplied as lyophilized formulation. Material was dissolved in 5% dextrose, aliquoted and stored at −20° C. At the day of treatment the aliquot was thawed, filtered and the concentration of solution was confirmed spectrophotometrically. • (ii) Chemotherapeutic drugs preparation and storage—Gemcitabine (GEM, Gemzar®, Lilly) was purchased from a local pharmacy as a powder, dissolved in saline to a concentration of 38 mg/ml, aliquoted and stored at −20° C. […] Cyclophosphamide (CTX, Endoxan®, Baxter Oncology Gmbh, Germany) was purchased from a local pharmacy. A stock solution of 20 mg/ml was prepared by dissolving in 0.9% NaCl, aliquoted and stored at −20° C. […] Whole body imaging of luciferase-transfected tumors and metastases were recorded five minutes following 75 mg Kg^−1 intraperitoneal (i.p.) injection of D-luciferin with respective filter sets. • (vi) PDT treatment protocol: 4T1-Luc cells were grafted in the mammary pad of Balb/c mice. […] Ablation of primary tumors was assessed every 7 days by imaging the tumor's luciferase-mediated bioluminescence signal, using IVIS. […]
# [3] = Spleen weight of animals orthotopically grafted with 4T1 cancer cells; type: in vivo, mice; details: 1 and 3 weeks
# From the text: FIG. 13 compares changes in the spleen weight of animals orthotopically grafted with 4T1 cancer cells and not treated (control) with tumor bearing animals that underwent Gemzar treatment, WST11 VTP treatment or their combination.
# [4] = system: CD11b+ cells, neutrophils/G-MDSC and monocytes/M-MDSC; assay: Innate immune response (spleen CD11b+ IHC, FACS of MDSC) of mice bearing MB49 tumors; type: in vivo; details: for CD11b+ cells in the spleen (IHC): day 6 post VTP; for neutrophils/G-MDSC and monocytes/M-MDSC in splenocytic cells (FACS): day 9 post treatment, Gemzar 60 or 120 mg/kg
# Method: • (i) Bacteriochlorophyll Derivatives—The Bchl derivatives and RGD-conjugates thereof were provided by Steba Biotech (Rehovot, Israel). […] Concentration was verified by spectrophotometric measurement. STL-7012 was provided as dipotassium salt. Working solution was prepared by dissolving STL-7012 K^+ salt in 5% mannitol solution (1 mg/ml). […] WST11 was supplied as a powder and kept in the dark at −20° C. Stock was prepared by dissolving WST11 in DDW containing 5% glucose and 0.67% mannitol, aliquoted and lyophilized. Working solution was reconstituted with DDW and the concentration of solution was confirmed spectrophotometrically. Alternatively, Clinical WST11 (batch: P00611, and 10-130611) was supplied as lyophilized formulation. Material was dissolved in 5% dextrose, aliquoted and stored at −20° C. At the day of treatment the aliquot was thawed, filtered and the concentration of solution was confirmed spectrophotometrically. • (ii) Chemotherapeutic drugs preparation and storage—Gemcitabine (GEM, Gemzar®, Lilly) was purchased from a local pharmacy as a powder, dissolved in saline to a concentration of 38 mg/ml, aliquoted and stored at −20° C. […] Cyclophosphamide (CTX, Endoxan®, Baxter Oncology Gmbh, Germany) was purchased from a local pharmacy. A stock solution of 20 mg/ml was prepared by dissolving in 0.9% NaCl, aliquoted and stored at −20° C. Aliquots were thawed, diluted with saline if needed to a desired concentration and used on the same day prepared at indicated doses. • (iii) Murine cell lines—Mammary luciferase (luc)-labeled 4T1 cell line (4T1-Luc) was a kind gift from Dr. Zvi Granot (Faculty of Medicine, The Hebrew University of Jerusalem, Israel); melanoma B16-F10 cell line was obtained from the American Type Culture Collection (ATCC, Manassas, Va.); bladder MB49 cell line was a kind gift from James Allison (MSKCC, New York, USA), and luc-labeled MB49-cell line was established using the murine stem cell virus (MSCV)-puromycin-luc-GFP construct (kindly provided by Dr. Emily Cheng, Human Oncology and Pathogenesis Program, MSKCC). 4T1 and MB49 cells were maintained in DMEM medium and B16-F10 cells in RPMI medium supplemented with 1 mmol/L sodium pyruvate, 10% fetal calf serum (FCS), 250 μg/ml hygromycin, 0.06 mg/ml penicillin and 0.1 mg/ml streptomycin. […] Whole body imaging of luciferase-transfected tumors and metastases were recorded five minutes following 75 mg Kg^−1 intraperitoneal (i.p.) injection of D-luciferin with respective filter sets. • (vi) PDT treatment protocol: 4T1-Luc cells were grafted in the mammary pad of Balb/c mice. […] Ablation of primary tumors was assessed every 7 days by imaging the tumor's luciferase-mediated bioluminescence signal, using IVIS. […]
structure (smiles),measurement,setting,value
"CCC1c2cc3[n-]c(c(CC(=O)OC)c4nc(cc5[n-]c(cc(n2)C1C)c(C(C)=O)c5C)C(C)C4CCC(=O)[O-])c(C(=O)NCCS(=O)(=O)[O-])c3C.[K+].[K+].[Pd+2] (stereo not drawn) [WST11, Palladium 3^1-oxo-15-methoxycarbonylmethyl-rhodobacteriochlorin 13^1-(2-sulfoethyl) amide dipotassium salt]",animals cured (fraction),MB49 (bladder) tumors [1],3/19
same,cure,MB49 (bladder) tumors [1],16%
same,tumor progression,MB49 (bladder) tumors [1],slightly delayed tumor progression
same,animals with growth of second tumor grafted at left hind leg 1 day post VTP (fraction),MB49 (bladder) tumors [2],12/19
same,surviving mice that rejected the tumor cells,MB49 (bladder) tumors [2]; re-challenge by tail vein injection of MB49 cells at day 125 post VTP,70%
same,six fold increase in spleen weight found in non-treated animals,[3],completely prevented
same,CD11b+ cells in the spleen (IHC),[4],depletes CD11b+ cells
same,neutrophils/G-MDSC and monocytes/M-MDSC in splenocytic cells (FACS),[4],depleted systemically
"Nc1ccn([C@@H]2O[C@H](CO)[C@@H](O)C2(F)F)c(=O)n1 [Gemzar, Gemcitabine]",animals cured (fraction),MB49 (bladder) tumors [1],0/19
same,cure,MB49 (bladder) tumors [1],0%
same,tumor progression,MB49 (bladder) tumors [1],slightly delayed tumor progression
same,animals with growth of second tumor grafted at left hind leg 1 day post VTP (fraction),MB49 (bladder) tumors [2],15/20
same,six fold increase in spleen weight found in non-treated animals,[3],almost completely avoided
same,CD11b+ cells in the spleen (IHC),[4],depletes CD11b+ cells
same,neutrophils/G-MDSC and monocytes/M-MDSC in splenocytic cells (FACS),[4],depleted systemically
